Laboratory results as given in patent publication US20260041093A1, “Ionic Derivatives Of Aromatic Carboxylic Acid For Use As Plant Stimulants, Method For Stimulating Plants And Use Of These Derivatives For Manufacturing Compositions For Stimulating Plants” (FUNDACJA UNIWERSYTETU IM. ADAMA MICKIEWICZA W POZNANIU, priority 2022, published 2026).
Where two headings read alike, the source gives them in different places.

What was measured:
winter rapeseed = settings: for more aboveground dry matter compared to control: last harvest date, fully ripe
Excerpt: The experiment was established using the long strip method in four repetitions. The dimensions of the plots at establishment were 96 m^2 gross, while the harvestable area was 23.25 m^2 net.
In the experiment, uniform NPK fertilization was applied, using both bulk and liquid fertilizers.
The following facilities were included in the experiment: • 1. control, no stimulant application, standard fungicide protection • 2. stimulant applied at stage 31-32 according to the BBCH development scale, standard fungicide protection • 3. stimulant applied at stage 53-55 according to the BBCH development scale, no fungicide protection

tomato = test: Greenhouse tomato sprayed three times: yield, health-promoting substances, leaf chlorophyll (Example 2); assay type: in vivo; settings: 80 mg/L, benzothiadiazole salt 30 mg/L, chitosan lactate 50 mg/L
Description: Biostimulant properties were evaluated for the following stimulants: […] The evaluation of stimulant properties included the influence of tested substances on tomato yield, content of health-promoting substances in yield and chlorophyll content in tomato leaves. […] The untreated control plants were sprayed with distilled water. During the experiment, total yield weight, commercial and non-commercial yield and average commercial fruit weight, number of fruits per plant and average fruit weight per plant were evaluated. […] Chlorophyll was measured before each treatment and one day after each treatment using Minolta's SPAD-502 chlorophyll meter.

[1] = test system: apple trees (M9 rootstocks); settings: 4 sprays at 14-day intervals; 3-chlorosalicylate 100 mg/L, benzothiadiazole salt 25 mg/L
Excerpt: Flowers were counted during the experiment, and the number of shoots and leaves in the fall.

tomato seedlings = test: Tomato seedlings in pots sprayed 3 times: height, fresh and dry weight, chlorophyll (Example 3); assay type: in vivo; settings: 80 mg/L, benzothiadiazole salt 30 mg/L
Excerpt: Tomato seedlings (12 according to development scale BBCH) were planted into pots with peat substrate (P9 pots having 0.5 l). Plant pots were placed in greenhouse and cultivated for a 1 and a half month. Plants were sprayed with tested substance 3 times, in 10-day interval. […] 2-methoxyethyl(trimethyl)-ammonium benzo[1,2,3]thiadiazole-7-carboxylate; 3. […] 2-methoxyethyl(trimethyl)ammonium 3-chlorosalicylate; 7. 2-ethoxyethyl(trimethyl)ammonium 3-chlorosalicylate; 8. ethyl(trimethyl)ammonium 3-chlorosalicylate at a concentration od 80 mg/l. Plants were sprayed with tested substances three times at 10-day intervals. Plants in peat substrate treated with water only were the control. During the course of the experiment, the height of the plants was measured, and at the end the fresh and dry weight of the aboveground part was evaluated. Moreover chlorophyll content was measured. The experiment was conducted in 4 repetitions with 5 plants in each (a total of 20 plants per each variant of treatment).

tulip = test: Tulip bulbs in peat watered with working solution: height, stem diameter, weights, root length, flowering, vigor (Example 1); assay type: in vivo; settings: 80 mg/L, benzothiadiazole salt 30 mg/L
Description: Control plants were watered with distilled water. During the conducted experiment, plant height was measured before each treatment. Flowering length and plant vigor were also studied. After 20 days from the end of the last treatment, the fresh and dry weight of aboveground parts and roots, and root length were assessed.

lettuce = settings: 3-chlorosalicylate 100 mg/L double application, benzothiadiazole salt 50 mg/L single application
Description: The purpose of the study was to determine the effect of foliar spraying with test solutions on lettuce plants (Lactuca sativa L. ‘Zeralda’) under abiotic stress conditions—low temperature. After 7 and 14 days after transplanting the plants to a permanent place, spraying of the plants was carried out. […] After another 7 days, low temperature stress was induced—plants were grown in three glass chambers with a day temperature of 22° C. and night temperatures of 4, 12 and 20° C. until harvest.

[2] = BBCH 32, standard fungicide protection, 80 mg/L, benzothiadiazole salt 25 mg/L
[3] = BBCH 32, stimulant only, 80 mg/L, benzothiadiazole salt 25 mg/L
[4] = BBCH 55, standard fungicide protection, 80 mg/L, benzothiadiazole salt 25 mg/L
[5] = BBCH 55, without fungicide, 80 mg/L, benzothiadiazole salt 25 mg/L
[6] = first sampling date, stimulant at BBCH 31-32, no fungicide yet, 80 mg/L, benzothiadiazole salt 25 mg/L
[7] = second date, regardless of cultivation technology, 80 mg/L, benzothiadiazole salt 25 mg/L
[8] = Table 2, 20 days after last treatment
[9] = Table 3 (title: tulip bulbs / root system)

## C[N+](C)(C)CCO.O=C([O-])c1cccc(Cl)c1O [choline 3-chlorosalicylate]
Winter rapeseed; [2]
  increase in calcium uptake: 5%
  increase in magnesium uptake: 4%
  increase in nitrogen uptake: 6%
  increase in phosphorus uptake: 7%
  increase in potassium uptake: 6%
Winter rapeseed; [3]
  increase in calcium uptake: 8%
  increase in magnesium uptake: 12%
  increase in nitrogen uptake: 9%
  increase in phosphorus uptake: 7%
  increase in potassium uptake: 8%
Winter rapeseed; BBCH 32, with fungicide, 80 mg/L, benzothiadiazole salt 25 mg/L
  higher fat content: 6%
Winter rapeseed; BBCH 32, without fungicide, 80 mg/L, benzothiadiazole salt 25 mg/L
  higher fat content: 8%
Winter rapeseed; [4]
  increase in calcium uptake: 9%
  increase in fat content: 6%
  increase in magnesium uptake: 10%
  increase in nitrogen uptake: 11%
  increase in phosphorus uptake: 10%
  increase in potassium uptake: 8%
Winter rapeseed; [5]
  increase in calcium uptake: 10%
  increase in fat content: 5%
  increase in magnesium uptake: 12%
  increase in nitrogen uptake: 11%
  increase in phosphorus uptake: 10%
  increase in potassium uptake: 7%
Winter rapeseed; both fungicide and stimulant treatments, 80 mg/L, benzothiadiazole salt 25 mg/L
  seed yields higher compared to control: 20%
Winter rapeseed; first measurement date
  chlorophyll content, differences between the tested objects: no differences were observed
Winter rapeseed; [6]
  more biomass (dry weight) compared to control: 34%
  more biomass (fresh weight) compared to control: 36%
Winter rapeseed; only the stimulant, 80 mg/L, benzothiadiazole salt 25 mg/L
  more aboveground dry matter compared to control: 42%
Winter rapeseed; with fungicide protection, 80 mg/L, benzothiadiazole salt 25 mg/L
  more aboveground dry matter compared to control: 38%
Winter rapeseed; [7]
  more dry weight compared to control, on average: 32%
  more fresh weight compared to control, on average: 28%
Winter rapeseed; tested combinations, 80 mg/L, benzothiadiazole salt 25 mg/L
  weight of one thousand seeds higher compared to control: 10%
Winter rapeseed; with a fungicide, printed 'first date' (of second and third measurement dates), 80 mg/L, benzothiadiazole salt 25 mg/L
  more chlorophyll in the leaves (SPAD) compared to control: 5%
Winter rapeseed; with a fungicide, printed 'second date', 80 mg/L, benzothiadiazole salt 25 mg/L
  more chlorophyll in the leaves (SPAD) compared to control: 7%
Winter rapeseed; without a fungicide, printed 'first date', 80 mg/L, benzothiadiazole salt 25 mg/L
  more chlorophyll in the leaves (SPAD) compared to control: 6%
Winter rapeseed; without a fungicide, printed 'second date', 80 mg/L, benzothiadiazole salt 25 mg/L
  more chlorophyll in the leaves (SPAD) compared to control: 5%
Winter rapeseed; without fungicide protection, stimulant at BBCH 31-32, 80 mg/L, benzothiadiazole salt 25 mg/L
  seed yields higher compared to control: 10%
tomato
  Chlorophyll content (SPAD), a day after treatment #1: 61.4 b
  Chlorophyll content (SPAD), a day after treatment #2: 60.3 b
  Chlorophyll content (SPAD), a day after treatment #3: 62.5 b
tomato; before treatment #1
  Chlorophyll content (SPAD), Treatment #1: 50.2 a
tomato; before treatment #2
  Chlorophyll content (SPAD), Treatment #2: 49.4 a
tomato; before treatment #3
  Chlorophyll content (SPAD), Treatment #3: 50.9 a
tomato; spray 3x
  Average fruit weight per plant: 154.23 b g
  Average weight of marketable fruit: 26.25 b kg/m^2
  Commercial yield: 18.4 b kg/m^2
  Number of fruits per plant: 4.30 b
  Total yield: 19.13 b kg/m^2
tomato; tomato fruits
  Calcium: 97.2 a mg/kg
  Lycopene: 36.4 b mg/kg
  Magnesium: 104.5 b mg/kg
  Vit. C: 191.5 c mg/kg
  Vit. E: 25.6 b mg/kg
  °Brix (sugar content of the liquid expressed in degree of Brix): 5.91 b g
[1]
  Average number of flowers per plant: 30.3 b
  Average number of leaves per plant: 45.3 b
  Average number of shoots per plant: 6.7 b
Tomato seedlings; chitosan lactate 50 mg/l
  Average plant height, before second treatment: 143.2 b mm
  Average plant height, before third treatment: 345.1 b mm
  Average plant height, initial height, before first treatment: 59.3 a mm
  Chlorophyll content (SPAD), a day after treatment #1: 74.6 b
  Chlorophyll content (SPAD), a day after treatment #2: 76.2 b
  Chlorophyll content (SPAD), a day after treatment #3: 79.3 b
  Plant height increase: 285.8 b mm
Tomato seedlings; above-ground part
  Average dry mass: 83.1 b g
  Average fresh mass: 327.7 b g
Tomato seedlings; before treatment #1, chitosan lactate 50 mg/l
  Chlorophyll content (SPAD), Treatment #1: 48.5 a
Tomato seedlings; before treatment #2, chitosan lactate 50 mg/l
  Chlorophyll content (SPAD), Treatment #2: 48.3 a
Tomato seedlings; before treatment #3, chitosan lactate 50 mg/l
  Chlorophyll content (SPAD), Treatment #3: 49.5 a
tulip
  Average stem diameter at the end of the experiment 20 days after the 4th treatment: 8.1 b mm
  Flowering length: 23 days
  Root length: 84.3 b mm
tulip; 1 is a laying plant, 5 is a stiff plant
  Vigor [on a scale from 1 to 5]: 4.8 b
tulip; [8]
  Average dry weight of the above-ground part: 41.8 b g
  Average fresh weight of the above-ground part: 443.8 b g
tulip; [9]
  Average dry weight of the above-ground part: 5.6 b g
  Average fresh weight of the above-ground part: 59.5 b g
tulip; before 1st watering
  Average plant height, initial height, first treatment: 45.7 a mm
tulip; before 2nd watering
  Average plant height, second treatment: 130.5 b mm
tulip; before 3rd watering
  Average plant height, third treatment: 257.4 b mm
tulip; before 4th watering
  Average plant height, fourth treatment: 369.1 b mm
tulip; end of experiment
  Average plant height, 20 days after the 4th treatment: 510.9 b mm
lettuce; night temperature 4° C.
  Head weight, 4° C.: 48.9 b g/plant
lettuce; night temperature 12° C.
  Head weight, 12° C.: 52.8 b g/plant
lettuce; night temperature 20° C.
  Head weight, 20° C.: 65.3 b g/plant
